Source: US11439607B2 (Paracelsus Neuroscience I, LLC, priority 2016, dated 2022)
“Also recorded” adds a separate entry of the source. Where two headings read alike, the source gives them in different places.

Key:
KCa3.1 = biological target: T1, KCa3.1 (Rattus norvegicus, UniProt Q9QYW1); assay: Whole cell patch clamp of K+ currents in rat primary microglia; type: cell-based; settings: read-out: IC50, inhibition of microglial K+ current
T1 construct: K^+ currents were recorded from primary microglia; endogenous in cells; host or cells: primary rat (cortical) microglia
Procedure: Primary rat microglia were plated at a density of 300,000/35 mm dish for 24 hours. Whole cell patch clamp recordings were performed using an EPC9 patch-clamp amplifier and PatchMaster software (HEKA Instruments Inc.). The cell's membrane potential was held at −60 mV. External solution contained (in mM): 140 NaCl, 4 KCl, […], 1.8 CaCl2, 10 HEPES, 10 Glucose, pH 7.4. Patch solution contained (in mM): 140 […], 11 EGTA, 2 MgCl2, 10 HEPES, pH 7.2. Drugs were applied by gravity and selected with a capillary tube placed in close proximity to the recording dish. BzATP (Sigma-Aldrich, St. Louis, Mo.) was applied for 10 seconds.
KCa3.1 is highly expressed on microglia in vitro (Kaushal et al., 2007). […] Some residual K^+ current still remained which was most likely not KCa3.1-sensitive (Kettenmann et al., 2011)

Rat primary microglia = assay: Microglial IL-1β release (LPS priming, BzATP); type: cell-based
Procedure: Rat primary microglia were primed with 3 EU/mL of ultra-pure Lipopolysaccharide (control standard endotoxin (CSE) Associates of Cape Cod, Falmouth, Mass.). […] Cell free supernatants were assayed for IL-1β using a custom rat cytokine assay (N451A-1; MesoScale Discovery, Rockville, Md.). IC50S were determined using Prism (Graphpad, San Diego, Calif.)
After 24 hours, media was assayed for nitrite (stable metabolite of NO). […] Primary rat cortical microglia were also treated with LPS (3 EU/ml, 3 hours) to stimulate the production of pro-IL-1β.

[1] = Plasma and brain free fraction by equilibrium dialysis; type: in vitro ADME, rat; design: dose or concentration left out as unconfirmed
Procedure: Briefly, naive plasma and brain tissues were homogenized in 3× and 4× w/v in homogenization buffer (50:30:20 H2O:IPA:DMS0), respectively. […] Following equilibration, the buffer sample was fortified with a fixed volume of blank tissue homogenate and the tissue sample was fortified with a fixed volume of buffer. Protein precipitation was performed with ice cold acetonitrile in the presence of an analytical internal standard. The supernatants were quantified for senicapoc using LC-MS/MS as described earlier.

rats = assay: Rat locomotor activity; type: in vivo; settings: 4 hours after dosing
Description: Male Sprague-Dawley rats (Charles River) weighing 225-275 g on the test day were divided into groups of 8 animals per treatment. […] Following the pre-treatment time, rats were placed into 50×25×20 cm cages lined with crushed corn cob bedding (Bed-o'Cobs ¼ inch, Andersons Lab Bedding, Maumee, Ohio, USA). The cages were positioned in a Smart Frame Cage Rack (Kinder Scientific, Poway, Calif., USA) outfitted with an infrared beam array (7 X×15 Y). Rats were allowed to move freely within the cage for 1 hour with beam breaks continuously recorded using MotorMonitor™ (Kinder Scientific,). Time course and cumulative data were analyzed with Prism 4 (GraphPad, La Jolla, Calif.). One-way ANOVA with Tukey's Multiple Comparison Post-Hoc Test was used for statistical analysis.

melatonin 1A receptors = biological target: T2, melatonin 1A receptors (Homo sapiens, UniProt P48039); assay: Off target screen (CEREP panel) and dose response; type: binding
T2 construct: CEREP (contract screening)

μ-opioid receptors = biological target: T3, μ-opioid receptors (Homo sapiens, UniProt P35372); assay: Off target screen (CEREP panel) and dose response; type: binding
T3 construct: CEREP (contract screening)

κ-opioid receptors = biological target: T4, κ-opioid receptors (Homo sapiens, UniProt P41145); assay: Off target screen (CEREP panel) and dose response; type: binding
T4 construct: CEREP (contract screening)

Healthy rats = Healthy rats - Paw pressure test; type: in vivo; settings: Senicapoc 100 mg/kg PO, 240 min after treatment
Procedure: (§1) Depending on the test, the percentage of activity was calculated from the mean value of the vehicle-treated animals and compared to naïve animals, control paw or cut-off value.

Oxaliplatin model = assay: Oxaliplatin - Acetone test (reaction time); type: in vivo, rodent; settings: Senicapoc 100 mg/kg PO, 240 min after treatment
Procedure: as §1

Kaolin model = assay: Kaolin - Gait score; type: in vivo, rodent; settings: Senicapoc 100 mg/kg PO, 240 min after treatment
Procedure: as §1

[2] = rats, post dose; cited from earlier work
[3] = full dose response curve, functional testing

T3 sequence (P35372 whole entry): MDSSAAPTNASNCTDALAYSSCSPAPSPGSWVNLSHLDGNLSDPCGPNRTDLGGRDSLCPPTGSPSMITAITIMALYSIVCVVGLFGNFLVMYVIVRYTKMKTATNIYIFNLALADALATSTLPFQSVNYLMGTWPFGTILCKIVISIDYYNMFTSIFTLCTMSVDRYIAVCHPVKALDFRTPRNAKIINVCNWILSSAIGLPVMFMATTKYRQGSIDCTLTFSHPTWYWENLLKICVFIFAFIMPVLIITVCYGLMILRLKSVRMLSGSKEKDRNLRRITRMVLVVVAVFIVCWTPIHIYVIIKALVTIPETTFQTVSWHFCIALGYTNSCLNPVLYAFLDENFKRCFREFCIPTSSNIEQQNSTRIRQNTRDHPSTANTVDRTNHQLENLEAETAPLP
T2 sequence (P48039 whole entry): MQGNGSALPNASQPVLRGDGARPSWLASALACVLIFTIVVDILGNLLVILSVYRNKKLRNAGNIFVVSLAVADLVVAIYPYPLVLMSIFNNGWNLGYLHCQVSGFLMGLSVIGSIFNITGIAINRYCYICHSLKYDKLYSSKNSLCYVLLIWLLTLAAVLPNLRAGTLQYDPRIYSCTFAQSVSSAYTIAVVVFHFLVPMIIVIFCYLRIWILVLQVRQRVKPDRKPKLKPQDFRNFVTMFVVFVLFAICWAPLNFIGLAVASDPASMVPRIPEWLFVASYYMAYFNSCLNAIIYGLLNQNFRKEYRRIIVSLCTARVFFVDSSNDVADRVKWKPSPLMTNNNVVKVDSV
T4 sequence (P41145 whole entry): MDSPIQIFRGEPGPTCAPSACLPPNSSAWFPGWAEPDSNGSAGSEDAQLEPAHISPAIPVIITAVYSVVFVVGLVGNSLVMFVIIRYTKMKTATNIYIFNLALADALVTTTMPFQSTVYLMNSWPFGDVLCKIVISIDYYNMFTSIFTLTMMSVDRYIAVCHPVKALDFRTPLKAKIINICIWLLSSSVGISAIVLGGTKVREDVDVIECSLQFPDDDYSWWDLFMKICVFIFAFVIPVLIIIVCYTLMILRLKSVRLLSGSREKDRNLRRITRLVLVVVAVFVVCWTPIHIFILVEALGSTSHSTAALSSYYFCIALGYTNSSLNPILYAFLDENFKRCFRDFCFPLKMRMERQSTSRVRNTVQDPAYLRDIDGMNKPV

IC50 (KCa3.1): 10 nM
IC50 (Rat primary microglia; FIG. 2B legend, LPS 3EU/ml 24 hours, n=3, read-out: IC50, inhibition of IL-1β release from primary microglia (FIG. 2B legend)): 1.3 nM
IC50 (Rat primary microglia; LPS 3 EU/ml priming, BzATP 1 mM, read-out: IC50, inhibition of IL-1β release from primary microglia): 15 nM
fraction unbound at 2.5 h ([1]; brain homogenate (4x w/v in homogenization buffer), rat brain homogenate, read-out: In vitro rat brain free fraction (UBBr)): 0.008
fraction unbound at 2.5 h ([1]; plasma (diluted 3x w/v in homogenization buffer), rat plasma, read-out: In vitro rat plasma free fraction (UBP)): 0.027
inhibition at 10 µM (melatonin 1A receptors; 10 μM): > 50%
IC50 (melatonin 1A receptors; [3]): 1700 nM
inhibition at 10 µM (μ-opioid receptors; 10 μM): > 50%
IC50 (μ-opioid receptors; [3]): 12000 nM
inhibition at 10 µM (κ-opioid receptors; 10 μM): > 50%
IC50 (κ-opioid receptors; [3]): 19000 nM
Compound: NC(=O)C(c1ccccc1)(c1ccc(F)cc1)c1ccc(F)cc1 [Senicapoc]
Effect on locomotor activity (total distance traveled) (rats; 30 mg/kg p.o.): no effect; also recorded: did not significantly affect
Effect on locomotor activity (total distance traveled) (rats; 100 mg/kg p.o.): no effect; also recorded: did not significantly affect
% of activity vs. vehicle (Healthy rats): −12%
% of activity vs. vehicle (Oxaliplatin model): 68%
% of activity vs. vehicle (Kaolin model): 29%
Tmax (time of maximum plasma concentration) [2]: 4 h
